System: 362531-283-R-J2-PDC complex spheroid viability
Experiment: Anticancer human tumor 362531-283-R-J2-PDC patient-derived colon adenocarcinoma cell line growth inhibition [RAS]
Settings: for IC50: curve of first compound; for viability, T/C: stronger effect = lower value
Procedure, shortened: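 Multi-cell-type spheroids: tumor cells plus HUVEC endothelial cells and mesenchymal stem cells. RAS-pathway inhibitors were combined with targeted agents, each dosed in half-log steps down from clinical Cmax, or from 10 microM when Cmax was unknown.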

[1] = second compound 0.0316 µM, first compound 0.0316 µM
[2] = second compound 0.0316 µM, first compound 0.1 µM
[3] = second compound 0.0316 µM, first compound 0.316 µM
[4] = second compound 0.0316 µM, first compound 1 µM
[5] = second compound 0.1 µM, first compound 0.0316 µM
[6] = second compound 0.1 µM, first compound 0.1 µM
[7] = second compound 0.1 µM, first compound 0.316 µM
[8] = second compound 0.1 µM, first compound 1 µM
[9] = second compound 0.316 µM, first compound 0.0316 µM
[10] = second compound 0.316 µM, first compound 0.1 µM
[11] = second compound 0.316 µM, first compound 0.316 µM
[12] = second compound 0.316 µM, first compound 1 µM
[13] = second compound 1 µM, first compound 0.0316 µM
[14] = second compound 1 µM, first compound 0.1 µM
[15] = second compound 1 µM, first compound 0.316 µM
[16] = second compound 1 µM, first compound 1 µM
[17] = second compound 3.16 µM, first compound 0.0316 µM
[18] = second compound 3.16 µM, first compound 0.1 µM
[19] = second compound 3.16 µM, first compound 0.316 µM
[20] = second compound 3.16 µM, first compound 1 µM
[21] = second compound 10 µM, first compound 0.0316 µM
[22] = second compound 10 µM, first compound 0.1 µM
[23] = second compound 10 µM, first compound 0.316 µM
[24] = second compound 10 µM, first compound 1 µM
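Also: spheroids exposed to the agents for 7 days before readout.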
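For viability, T/C in this document: luminescence viability as percent of DMSO vehicle control wells.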

In the case of `CC(=O)OC12COC1CC(O)C1(C)C(=O)C(O)C3=C(C)C(OC(=O)C(O)C(NC(=O)OC(C)(C)C)c4ccccc4)CC(O)(C(OC(=O)c4ccccc4)C21)C3(C)C` (stereo unspecified) + CCn1c(-c2cccnc2C(C)OC)c2c3cc(ccc31)N1CCOC(CC(NC(=O)C(C(C)C)N(C)C(=O)C3(F)CCN(C(=O)C#CC(C)(C)N(C)C)CC3)C(=O)N3CCCC(N3)C(=O)OCC(C)(C)C2)C1, the IC50 (second compound 0.000949 µM) is reported as 234 nM, the IC50 (second compound 0.003 µM) is reported as 235 nM and the IC50 (second compound 0.00949 µM) is reported as 225 nM. For the same molecule, the IC50 (second compound 0.03 µM) was 243 nM, the IC50 (second compound 0.0949 µM) was 234 nM and the IC50 (second compound 0.3 µM) was 229 nM. For the same molecule, the viability, T/C (second compound 0.000949 µM, first compound 0.0316 µM) was 98.1%, the viability, T/C (second compound 0.000949 µM, first compound 0.1 µM) was 97.4% and the viability, T/C (second compound 0.000949 µM, first compound 0.316 µM) was 33.3%. For the same molecule, the viability, T/C (second compound 0.000949 µM, first compound 1 µM) was 19.5%, the viability, T/C (second compound 0.000949 µM, first compound 3.16 µM) was 23.1% and the viability, T/C (second compound 0.000949 µM, first compound 10 µM) was 38.4%. The viability, T/C (second compound 0.003 µM, first compound 0.0316 µM) was 102%, the viability, T/C (second compound 0.003 µM, first compound 0.1 µM) was 94.6% and the viability, T/C (second compound 0.003 µM, first compound 0.316 µM) was 34.7%. The viability, T/C (second compound 0.003 µM, first compound 1 µM) was 16.6%, the viability, T/C (second compound 0.003 µM, first compound 3.16 µM) was 24.5% and the viability, T/C (second compound 0.003 µM, first compound 10 µM) was 38.4%. For the same molecule, the viability, T/C (second compound 0.00949 µM, first compound 0.0316 µM) was 101%, the viability, T/C (second compound 0.00949 µM, first compound 0.1 µM) was 95.4% and the viability, T/C (second compound 0.00949 µM, first compound 0.316 µM) was 31.1%. For the same molecule, the viability, T/C (second compound 0.00949 µM, first compound 1 µM) was 20%, the viability, T/C (second compound 0.00949 µM, first compound 3.16 µM) was 26% and the viability, T/C (second compound 0.00949 µM, first compound 10 µM) was 36.1%. For the same molecule, the viability, T/C (second compound 0.03 µM, first compound 0.0316 µM) was 93%, the viability, T/C (second compound 0.03 µM, first compound 0.1 µM) was 98% and the viability, T/C (second compound 0.03 µM, first compound 0.316 µM) was 36.5%. For the same molecule, the viability, T/C (second compound 0.03 µM, first compound 1 µM) was 17.7%, the viability, T/C (second compound 0.03 µM, first compound 3.16 µM) was 29.2% and the viability, T/C (second compound 0.03 µM, first compound 10 µM) was 34.1%. For the same molecule, the viability, T/C (second compound 0.0949 µM, first compound 0.0316 µM) was 95.2%, the viability, T/C (second compound 0.0949 µM, first compound 0.1 µM) was 92.7% and the viability, T/C (second compound 0.0949 µM, first compound 0.316 µM) was 34.8%. It also gave a viability, T/C (second compound 0.0949 µM, first compound 1 µM) of 19%, a viability, T/C (second compound 0.0949 µM, first compound 3.16 µM) of 24.2% and a viability, T/C (second compound 0.0949 µM, first compound 10 µM) of 31.7%. The viability, T/C (second compound 0.3 µM, first compound 0.0316 µM) was 105%, the viability, T/C (second compound 0.3 µM, first compound 0.1 µM) was 96.6% and the viability, T/C (second compound 0.3 µM, first compound 0.316 µM) was 31.9%. The viability, T/C (second compound 0.3 µM, first compound 1 µM) was 18.9%, the viability, T/C (second compound 0.3 µM, first compound 3.16 µM) was 22.5% and the viability, T/C (second compound 0.3 µM, first compound 10 µM) was 28.3%.

`Cc1nc(N2CCC3(CC2)COC(C)C3N)c(CO)nc1Sc1ccnc(N)c1Cl` (stereo unspecified) + C#Cc1c(F)ccc2cc(O)cc(-c3ncc4c(N5CC6CCC(C5)N6)nc(OCC56CCCN5CC(F)C6)nc4c3F)c12 was tested, and the IC50 (second compound 0.0316 µM) was 5180 nM, the IC50 (second compound 0.1 µM) was 1650 nM and the IC50 (second compound 0.316 µM) was 883 nM. For the same molecule, the IC50 (second compound 1 µM) was 482 nM, the IC50 (second compound 3.16 µM) was 156 nM and the IC50 (second compound 10 µM) was < 31.6 nM. The viability, T/C [1] was 104%, the viability, T/C [2] was 107% and the viability, T/C [3] was 94.8%. It also gave a viability, T/C [4] of 88.9%, a viability, T/C (second compound 0.0316 µM, first compound 3.16 µM) of 76.1% and a viability, T/C (second compound 0.0316 µM, first compound 10 µM) of 19.1%. The viability, T/C [5] was 104%, the viability, T/C [6] was 102% and the viability, T/C [7] was 92.3%. The viability, T/C [8] was 69.5%, the viability, T/C (second compound 0.1 µM, first compound 3.16 µM) was 25.7% and the viability, T/C (second compound 0.1 µM, first compound 10 µM) was 4.47%. It also gave a viability, T/C [9] of 99.9%, a viability, T/C [10] of 93.3% and a viability, T/C [11] of 79.2%. It also gave a viability, T/C [12] of 49.8%, a viability, T/C (second compound 0.316 µM, first compound 3.16 µM) of 7.28% and a viability, T/C (second compound 0.316 µM, first compound 10 µM) of 4.45%. For the same molecule, the viability, T/C [13] was 81%, the viability, T/C [14] was 81.5% and the viability, T/C [15] was 69.5%. For the same molecule, the viability, T/C [16] was 16.2%, the viability, T/C (second compound 1 µM, first compound 3.16 µM) was 7.77% and the viability, T/C (second compound 1 µM, first compound 10 µM) was 4.16%. For the same molecule, the viability, T/C [17] was 81%, the viability, T/C [18] was 59.2% and the viability, T/C [19] was 35.6%. For the same molecule, the viability, T/C [20] was 11%, the viability, T/C (second compound 3.16 µM, first compound 3.16 µM) was 9.29% and the viability, T/C (second compound 3.16 µM, first compound 10 µM) was 6.04%. For the same molecule, the viability, T/C [21] was 38%, the viability, T/C [22] was 22.6% and the viability, T/C [23] was 14.1%. The viability, T/C [24] was 13.3%, the viability, T/C (second compound 10 µM, first compound 3.16 µM) was 8.12% and the viability, T/C (second compound 10 µM, first compound 10 µM) was 3.97%.

Molecule `CCN1CCN(Cc2ccc(Nc3ncc(F)c(-c4cc(F)c5nc(C)n(C(C)C)c5c4)n3)nc2)CC1` + C#Cc1c(F)ccc2cc(O)cc(-c3ncc4c(N5CC6CCC(C5)N6)nc(OCC56CCCN5CC(F)C6)nc4c3F)c12 has an IC50 (second compound 0.0316 µM) of 504 nM, an IC50 (second compound 0.1 µM) of 356 nM and an IC50 (second compound 0.316 µM) of 187 nM. For the same molecule, the IC50 (second compound 1 µM) was 104 nM, the IC50 (second compound 3.16 µM) was 24.1 nM and the IC50 (second compound 10 µM) was < 3.16 nM. For the same molecule, the viability, T/C (second compound 0.0316 µM, first compound 0.00316 µM) was 89.4%, the viability, T/C (second compound 0.0316 µM, first compound 0.01 µM) was 98.7% and the viability, T/C [1] was 98.8%. The viability, T/C [2] was 70.3%, the viability, T/C [3] was 62.4% and the viability, T/C [4] was 36.9%. For the same molecule, the viability, T/C (second compound 0.1 µM, first compound 0.00316 µM) was 93.7%, the viability, T/C (second compound 0.1 µM, first compound 0.01 µM) was 93.6% and the viability, T/C [5] was 81.4%. It also gave a viability, T/C [6] of 63%, a viability, T/C [7] of 57.4% and a viability, T/C [8] of 28.8%. For the same molecule, the viability, T/C (second compound 0.316 µM, first compound 0.00316 µM) was 93.8%, the viability, T/C (second compound 0.316 µM, first compound 0.01 µM) was 89.2% and the viability, T/C [9] was 85.4%. The viability, T/C [10] was 58.7%, the viability, T/C [11] was 42% and the viability, T/C [12] was 21.9%. For the same molecule, the viability, T/C (second compound 1 µM, first compound 0.00316 µM) was 86.2%, the viability, T/C (second compound 1 µM, first compound 0.01 µM) was 88% and the viability, T/C [13] was 74.1%. For the same molecule, the viability, T/C [14] was 50.5%, the viability, T/C [15] was 29.8% and the viability, T/C [16] was 20%. The viability, T/C (second compound 3.16 µM, first compound 0.00316 µM) was 77.6%, the viability, T/C (second compound 3.16 µM, first compound 0.01 µM) was 60.2% and the viability, T/C [17] was 48.5%. It also gave a viability, T/C [18] of 32.1%, a viability, T/C [19] of 22.4% and a viability, T/C [20] of 17%. It also gave a viability, T/C (second compound 10 µM, first compound 0.00316 µM) of 45.2%, a viability, T/C (second compound 10 µM, first compound 0.01 µM) of 42.5% and a viability, T/C [21] of 30.9%. The viability, T/C [22] was 23.6%, the viability, T/C [23] was 16.7% and the viability, T/C [24] was 12.2%.
